How the values were obtained:
[1] = system: C. albicans; test: killing efficiency of solutions; type: cell-based, Candida albicans; details: solution, fluconazole at 5.0 mg/L
Procedure: A stock solution of cationic polymer VE/PrBr(1:15) (5 mg) in sterile HPLC grade water (10 mL) was prepared having a final concentration of 500 mg/L (500 ppm). A second stock solution of fluconazole (1 mg) in sterile HPLC grade water (100 mL) was prepared having a final concentration of 10 mg/L (10 ppm). Three solutions were prepared: (1) cationic polymer alone at 1.0MIC=250 mg/L (250 ppm) against C. albicans, (2) A cationic polymer/fluconazole solution containing VE/PrBr(1:15) at 0.5MIC=125 mg/L (125 ppm) against C. albicans and fluconazole at 2.5 mg/L (2.5 ppm), and (3) fluconazole alone at 5.0 mg/L (5 ppm). Formulation (2) was obtained by combining […] each of the stock solutions of cationic polymer and fluconazole and diluting the resulting solution with 750 microliters of sterile HPLC grade water.

[2] = system: P. aeruginosa; test: killing efficiency / minimum bactericidal concentration; type: cell-based, Pseudomonas aeruginosa; details: single agent
Procedure: Procedure for hydrogels: E. coli, P. aeruginosa, S. aureus and C. albicans were obtained from ATCC and reconstituted from its lyophilized form according to the manufacturer's protocol. Bacterial samples were cultured in Tryptic Soy Broth (TSB) solution at 37° C. under constant shaking of 300 rpm. C. albicans was culture in yeast medium at room temperature under constant shaking of 70 rpm. Prior to treatment, the bacterial sample was first inoculated and cultured to enter into log growth phase. To prepare the antimicrobial hydrogels, cationic polymer was first dissolved in filtered HPLC water in a bio-hood. […] For instance, cationic polymer VE/BnCl(1:30) or cationic polymer VE/PrBr(1:30) was dissolved by using sterile HPLC grade water to form a polymer solution at various concentrations. This solution was then used to dissolve […]1.25 to form a 4 wt. % hydrogel containing various concentrations of the cationic polymers. […] The concentration of bacterial solution was adjusted to give an initial optical density (O.D.) reading of approximately 0.07 at 600 nm wavelength on a microplate reader (TECAN, Switzerland), which corresponds to the concentration of McFarland 1 solution (3×10^8 CFU/mL). […] The plates were incubated for 24 hours at 37° C. and the number of colony-forming units (CFU) was counted. […]

| Compound | killing efficiency against C. albicans [1] | MBC against P. aeruginosa [2] |
| --- | --- | --- |
| OC(Cn1cncn1)(Cn1cncn1)c1ccc(F)cc1F [fluconazole, Fluconazole] | 93.53% | – |
| Doxycycline [DXY] | – | 20 to 30 µg/mL |
